Source: patent US11311598B2, “Peptides and analogs for use in the treatment of oral mucositis” (Soligenix, Inc., priority 2013, dated 2022)
Entries after “also recorded” stand apart in the source; their conditions may differ. Where no end group is shown, it is not given here.

What was measured:
[1] = tested on: male Golden Syrian hamsters; assay: radiation-induced oral mucositis in hamsters (fractionated radiation); assay type: in vivo, hamster; settings: for duration of severe oral mucositis: fractionated radiation model
Experimental: These studies confirmed that optimal dosing of RIVPA (SEQ ID NO. 5) involves dosing every third day and that the 25 mg/kg dose level is effective. In this model, cannulated male Golden Syrian hamsters were treated with 7.5 Gy of radiation, directed at the everted left cheek pouch, on Days 0, 1, 2, 3, 6, 7, 8 and 9. Mucositis was evaluated every second day between Days 7 and 35, with peak mucositis severity generally occurring around Day 19. In the first study, RIVPA (SEQ ID NO. 5) (25 mg/kg IV) was administered either every third day starting on Day 0 and continuing until Day 33 (Q3d d0-33), or on days of radiation therapy (Days 0, 1, 2, 3, […], 7, 8, 9) or every third day starting on Day 6 and continuing to Day 24 (Q3d d6-24). On days where both RIVPA (SEQ ID NO. 5) and radiation was administered, RIVPA (SEQ ID NO. 5) was given 2 hours after radiation. […] A follow-up study was undertaken to evaluate dosing with 25 mg/kg IV RIVPA (SEQ ID NO. 5) Q3d d0-33, on days of radiation, or every third day during radiation treatment (i.e., Days 0, 3, 6 and 9).

mouse normal blood cells = assay: proliferation of mouse normal blood cells in vitro; assay type: cell-based
MRSA (USA300) = assay type: in vivo, mouse
Experimental: Multiple studies with IV administered RIVPA (SEQ ID NO. 5) were conducted in a MRSA bacteremia model. […] In the first study, MRSA (USA300, 7.3 log 10 cfu) was administered via IV injection into the tail vein of female Balb/c mice at time 0. Four hours prior to infection, a single dose of saline or RIVPA (SEQ ID NO. 5) at the indicated dose levels was injected IV into the tail vein. Sub-optimal antibiotic treatment (linezolid, 6.25 mg/kg) was administered once orally immediately after infection. Survival was monitored for 21 days after the infection. In the second study, RIVPA (SEQ ID NO. 5) (IV) or saline (IV) was administered once 4 h prior to infection with MRSA (strain USA300, 7.0 log10 cfu) via the tail vein into female nu/nu mice.

male C3H/HeN mice = assay: chemotherapy-induced oral and gastrointestinal mucositis in the mouse; assay type: in vivo
Experimental: In each study, 5-fluorouracil (60 mg/kg IP) was administered to male C3H/HeN mice on Days −4 and −2. […] […] Body weights were also measured daily and colitis severity was determined by video endoscopy on Days 4 and 7. In the first study, RIVPA (SEQ ID NO. 5) (25 mg/kg IV) was administered either once on Day −4 immediately prior to chemotherapy, twice on Days −4 and −2 immediately after chemotherapy or 3 times on Days −1, 2 and 5. […] In the second study, RIVPA (SEQ ID NO. 5) (25 mg/kg IV) was administered on either Days −1, 2 and 5, Days −1, 1 and 3 or Days 0, 2, and 4. […] In the third study, RIVPA (SEQ ID NO. 5) (25 or 5 mg/kg IV, as indicated) was administered either on Days −1, 2 and 5 or on Days 1 and 3. […] Statistical significance was assessed for oral mucositis using a chi-square analysis and for body weight area under the curve (AUC) with an ANOVA on ranks. […] Treatment with R(tBg)V1KR(tBg)V2 (SEQ ID NO. 91) and RIV(mp2)A-NH2 (SEQ ID NO. 92) was administered on Days −1 and 2 at a dose of 25 mg/kg IV.

cynomolgus monkeys = assay: cynomolgus monkey IV toxicity studies (pilot, GLP 14-day); assay type: in vivo; settings: for occurrence of acute toxicity (respiratory depression): cynomolgus monkey
Experimental: (§1) Two pilot and 2 definitive repeat-dose toxicity studies were conducted with RIVPA (SEQ ID NO. 5) in mice and cynomolgus monkeys using the intravenous (IV; slow bolus) route of administration. All studies were conducted by LAB Research Inc., Canada.
(§2) These resolved within a few minutes without detectable residual effects.
RIVPA (SEQ ID NO. 5) at 20, 80, 160 mg/kg/day was given IV to cynomolgus monkeys for 14 days. […] In all cases, these clinical signs resolved within a few minutes. […] A dose level of 80 mg/kg/day was considered to be the No-Observed-Adverse-Effect-Level (NOAEL) for this study.
Overall, the NOAEL is considered to be 80 mg/kg/day for cynomolgus monkeys since transient clinical signs were limited to a single study and occurred in only 2 instances of the 98 administrations of the drug at this dose level.
(§3) The observed respiratory depression occurred at different dose levels in different species, and was not predicted by allometric scaling. In particular, the mouse appeared to be the most sensitive species with acute toxicity occurring rarely at 60 mg/kg (HED: ^˜5 mg/kg) and commonly at 90 mg/kg (HED: ^˜7 mg/kg). In contrast in NHP (cynomologus monkey), acute toxicity occurred occasionally at 160 mg/kg (HED: ^˜50 mg/kg) and consistently at 240 mg/kg (HED: ^˜78 mg/kg).

mice = assay: mouse IV toxicity studies (pilot single dose, GLP 14-day, acute); assay type: in vivo
Experimental: as §1, §2
The safety of multiple daily injections of RIVPA (SEQ ID NO. 5) has also been evaluated in GLP studies in mice and cynomolgus monkeys. In mouse, doses of 20, 60, or 90 mg/kg/day were given IV for 14 days.
as §3

[2] = mouse, 5-fluorouracil chemotherapy model, RIVPA IV

## RIVPA-NH2 [RIVPA (SEQ ID NO. 5), RIVPA]
[1]; first study, 25 mg/kg IV every third day Day 0 to Day 33 (Q3d d0-33)
  treatment effectiveness on mucositis: most effective
[1]; first study, 25 mg/kg IV every third day Day 6 to Day 24 (Q3d d6-24)
  treatment effectiveness on mucositis: not beneficial
[1]; first study, 25 mg/kg IV on days of radiation
  treatment effectiveness on mucositis: most effective
[1]; follow-up study, 25 mg/kg IV every third day during radiation (Days 0, 3, 6 and 9)
  treatment effectiveness on mucositis: optimal
[1]; FIG. 1
  duration of severe oral mucositis: reduces
[1]; optimized dosing regimen, FIG. 2
  duration of severe oral mucositis: reduces
[1]; hamster, 7.5 Gy to left cheek pouch on Days 0, 1, 2, 3, 6, 7, 8 and 9, RIVPA IV
  severity and duration of mucositis: significantly reduced
Mouse normal blood cells
  proliferation of normal blood cells: did not promote the proliferation
MRSA (USA300); FIG. 9
  duration for which the survival benefit is sustained: at least 21 days
MRSA (USA300); MRSA bacteremia model (data not shown)
  time after initiation of infection at which administration still confers a survival benefit: up to 24 h
MRSA (USA300); depending on dose level (data not shown)
  time prior to initiation of infection at which a single dose still confers a survival benefit: up to 5 days
MRSA (USA300); female Balb/c mice, single dose 50 mg/kg IV 4 h prior to infection, linezolid 6.25 mg/kg oral, 21 days
  survival over the saline control: statistically significant enhanced survival
Male C3H/HeN mice; first study, 25 mg/kg IV 3 times on Days −1, 2 and 5
  treatment effectiveness on mucositis: most effective
Male C3H/HeN mice; mouse, 5-fluorouracil 60 mg/kg IP Days −4 and −2, chemical burn of tongue Day 0, RIVPA IV
  duration of severe oral mucositis: reduces; also recorded: statistically significant reduction
Male C3H/HeN mice; [2]
  body weight loss: reduces
  severity of colitis (video endoscopy): reduces; also recorded: trend towards reduced colitis
Male C3H/HeN mice; third study, 5 vs 25 mg/kg IV
  efficacy at decreased dose levels: decreased efficacy
Male C3H/HeN mice; third study, dosing every third day (Days −1, 2 and 5)
  treatment effectiveness on mucositis: most effective
Cynomolgus monkeys; NHP 160 mg/kg
  HED of acutely toxic dose: ~50 mg/kg
Cynomolgus monkeys; NHP 240 mg/kg
  HED of acutely toxic dose: ~78 mg/kg
Cynomolgus monkeys; NHP 14-day toxicity study
  immune-related organ weights, histopathology, hematology and clinical chemistry: no changes were observed
Cynomolgus monkeys; NHP pilot studies, 90 (1 animal), 180 (both animals) and 220 (1 animal) mg/kg, during and shortly after dosing
  clinical signs: mild clinical signs
Cynomolgus monkeys; NHP, after 14 days of intravenous dosing
  T-cell, B-cell or NK-cell counts: no effect
Cynomolgus monkeys; 160 mg/kg
  occurrence of acute toxicity (respiratory depression): occasionally
Cynomolgus monkeys; 240 mg/kg
  occurrence of acute toxicity (respiratory depression): consistently
Cynomolgus monkeys; cynomolgus monkeys, 160 mg/kg/day IV for 14 days
  clinical signs: Transient decreased activity and partially closed eyes
Cynomolgus monkeys; cynomolgus monkeys, 20 and 80 mg/kg/day IV for 14 days
  toxicity: did not result in any evidence of toxicity
mice; mouse 14-day toxicity study
  immune-related organ weights, histopathology, hematology and clinical chemistry: no changes were observed
mice; mouse, 20 mg/kg for 14 days
  adverse effects: No adverse effects were observed
mice; mouse, 20 mg/kg/day IV for 14 days
  mortality or clinical signs: No test article-related mortality or clinical signs
mice; mouse, 60 mg/kg
  HED of acutely toxic dose: ~5 mg/kg
  occurrence of acute toxicity (respiratory depression): rarely
mice; mouse, 60 mg/kg/day IV for 14 days
  mortality: Lethality was also observed in 1 animal
mice; mouse, 90 mg/kg
  HED of acutely toxic dose: ~7 mg/kg
  occurrence of acute toxicity (respiratory depression): commonly
mice; mouse, 90 mg/kg/day IV for 14 days
  mortality: Deaths were observed
mice; mouse, survivors of all groups, 14 days
  organ toxicity, biochemistry, hematology: no evidence of toxicity in any organ or abnormal biochemistry or hematology
